# Assay results as given in PMC10453766, “Comparison of the Effects of DOTA and NOTA Chelators on ^64Cu-Cudotadipep and ^64Cu-Cunotadipep for Prostate Cancer” (Diagnostics, 2023).
# Experiments:
# [1] = Serum stability in human serum (radio-TLC); type: in vitro ADME; conditions: 37 °C, 2, 24 and 48 h
# Experimental: (§1) The serum stabilities of ^64Cu-cudotadipep and ^64Cu-cunotadipep were evaluated in human and mouse sera for 48 h. Briefly, 10 µL ^64Cu-cudotadipep (3.7 MBq) or […] (3.7 MBq) was mixed with 90 µL human or mouse serum and then incubated at 37 °C for 48 h. At each time point (2, 24, and 48 h), a 10 µL sample was removed, mixed with 100 µL distilled water, filtered through a 0.22 µm membrane filter, and then analyzed using radio-thin layer chromatography (TLC eluent condition: 1 M NH4OAc:MeOH = 1:1). The radio-TLCs were performed using a radio-TLC imaging scanner (BioScan, Washington, DC, USA) for radiodetection.
# [2] = tested on: PC3-flu (PSMA−) cells; assay: Cell uptake in PC3-flu cells; type: cell-based, human; conditions: 1 × 10^6 cells, 3.7 MBq, 2 h, 37 °C
# Experimental: (§2) PC3-PIP or PC3-flu cells (1 × 10^6) were mixed with 3.7 MBq (100 μCi) of ^64Cu-cudotadipep or ^64Cu-cunotadipep and incubated at 37 °C and 5% CO2 for 2 h. Following incubation, the cells were washed with PBS twice and collected via centrifugation (2000 rpm, 5 min). Radioactivity was measured using 2480 WIZARD2 gamma counter (Perkin Elmer, Waltham, MA, USA). Percent (%) uptake was calculated using the ratio between the radioactivity of the cells and treated radioactivity.
# [3] = Serum stability in mouse serum (radio-TLC); type: in vitro ADME; conditions: 37 °C, 2, 24 and 48 h
# Experimental: as §1
# [4] = tested on: PC3-PIP (PSMA+) cells; assay: Cell uptake in PC3-PIP cells; type: cell-based, human; conditions: PC3-PIP cells, 1 × 10^6 cells, 3.7 MBq, 2 h, 37 °C
# Experimental: as §2
# [5] = Radiation-absorbed dose calculation (OLINDA/EXM) from normal mouse biodistribution; design: species or system human
# Experimental: The biodistribution results of normal BALB/c mice were used to evaluate the human radiation-absorbed dose. The internal absorbed doses of ^64Cu-cudotadipep and ^64Cu-cunotadipep were evaluated using the residence time and total amount of radioactivity in the target organ of the mice. The internal absorbed dose of the mice was converted to the human dose based on the Medical Internal Radiation Dose schema, using OLINDA/EXM version 1.1 software.
# [6] = tested on: PC3-PIP tumor xenograft; assay: Biodistribution in PC3-PIP tumor-bearing nude mice; type: in vivo, mouse; conditions: tail vein
# Experimental: All animal experiments followed the procedures approved by the Institutional Animal Care and Use Committee of Korea Institute of Radiological & Medical Sciences (approval No. KIRAMS2021-0044). Male BALB/c mice and athymic nude (Nu/Nu) BALB/c mice (weighing 20–25 g, 8 weeks old) were purchased from Nara Biotech (Seoul, Republic of Korea). PC3-PIP cells (1 × 10^7) were dispensed in 100 μL PBS, mixed with Matrigel, and subcutaneously implanted in the right thigh of male athymic nude (Nu/Nu) BALB/c mice. When the tumor reached 0.5–0.9 cm in diameter (2–3 weeks following implantation), biodistribution studies and PET imaging were performed.
# (§3) Approximately 0.93 MBq ^64Cu-cudotadipep or ^64Cu-cunotadipep was injected via the tail vein into normal BALB/c mice or PC3-PIP tumor-bearing nude mice (n = 5/group). Normal and tumor-bearing mice were euthanized at 2, 6, 24, and 48 h following injection. Tumor and normal tissues were excised and weighed, and their radioactivity was measured using a gamma counter (2480 WIZARD2 gamma counter, Perkin Elmer, Waltham, MA, USA). The radioactivity measured in each tissue was expressed as a percentage of the injected dose per gram of tissue (%ID/g).
# [7] = Biodistribution in normal BALB/c mice; type: in vivo, mouse; conditions: tail vein
# Experimental: as §3
compound,measurement,setting,value
O=C([O-])CN1CCN(CC(=O)[O-])CCN(CC(=O)N[C@@H](CCCCNC(=O)CCCc2ccc(I)cc2)C(=O)NCCOCCOCC(=O)N(CCCC[C@H](NC(=O)N[C@@H](CCC(=O)O)C(=O)O)C(=O)O)CC(=O)O)CC1.[64Cu+2] [^64Cu-cunotadipep],serum stability,[1],> 98%
same,cellular uptake,[2],1.52 ± 0.03%
same,serum stability,[3],> 98%
same,cellular uptake,[4],6.02 ± 0.05%
same,effective dose,"[5]; ICRP tissue-weighting factors, OLINDA/EXM, extrapolated from mouse biodistribution",3.00 × 10^−2 mSv/MBq
same,"estimated radiation-absorbed dose, kidneys","[5]; adult males, extrapolated from normal BALB/c mouse biodistribution",2.02 mGy/MBq
same,"Biodistribution, Blood",[6]; 2 h,9.81 ± 3.47 %ID/g
same,"Biodistribution, Bone",[6]; 2 h,5.71 ± 1.47 %ID/g
same,"Biodistribution, Fat",[6]; 2 h,5.72 ± 5.53 %ID/g
same,"Biodistribution, Heart",[6]; 2 h,4.56 ± 1.25 %ID/g
same,"Biodistribution, Intestine",[6]; 2 h,2.97 ± 1.15 %ID/g
same,"Biodistribution, Kidney",[6]; 2 h,65.02 ± 22.42 %ID/g
same,"Biodistribution, Liver",[6]; 2 h,8.33 ± 2.29 %ID/g
same,"Biodistribution, Lung",[6]; 2 h,7.72 ± 2.30 %ID/g
same,"Biodistribution, Muscle",[6]; 2 h,2.14 ± 0.59 %ID/g
same,"Biodistribution, Spleen",[6]; 2 h,8.58 ± 3.99 %ID/g
same,"Biodistribution, Stomach",[6]; 2 h,2.50 ± 1.05 %ID/g
same,"Biodistribution, Tumor",[6]; 2 h,22.61 ± 14.10 %ID/g
same,"Biodistribution, Blood",[6]; 6 h,4.01 ± 0.94 %ID/g
same,"Biodistribution, Bone",[6]; 6 h,1.81 ± 1.50 %ID/g
same,"Biodistribution, Fat",[6]; 6 h,4.14 ± 1.33 %ID/g
same,"Biodistribution, Heart",[6]; 6 h,2.59 ± 0.38 %ID/g
same,"Biodistribution, Intestine",[6]; 6 h,2.74 ± 0.80 %ID/g
same,"Biodistribution, Kidney",[6]; 6 h,91.48 ± 12.98 %ID/g
same,"Biodistribution, Liver",[6]; 6 h,6.96 ± 1.00 %ID/g
same,"Biodistribution, Lung",[6]; 6 h,5.75 ± 2.72 %ID/g
same,"Biodistribution, Muscle",[6]; 6 h,1.44 ± 0.56 %ID/g
same,"Biodistribution, Spleen",[6]; 6 h,6.63 ± 0.12 %ID/g
same,"Biodistribution, Stomach",[6]; 6 h,1.42 ± 0.53 %ID/g
same,"Biodistribution, Tumor",[6]; 6 h,35.14 ± 9.68 %ID/g
same,"Biodistribution, Blood",[6]; 24 h,1.23 ± 0.38 %ID/g
same,"Biodistribution, Bone",[6]; 24 h,2.81 ± 1.71 %ID/g
same,"Biodistribution, Fat",[6]; 24 h,0.74 ± 0.20 %ID/g
same,"Biodistribution, Heart",[6]; 24 h,1.64 ± 0.12 %ID/g
same,"Biodistribution, Intestine",[6]; 24 h,2.38 ± 0.42 %ID/g
same,"Biodistribution, Kidney",[6]; 24 h,50.29 ± 7.06 %ID/g
same,"Biodistribution, Liver",[6]; 24 h,6.99 ± 0.45 %ID/g
same,"Biodistribution, Lung",[6]; 24 h,4.58 ± 1.08 %ID/g
same,"Biodistribution, Muscle",[6]; 24 h,0.41 ± 0.06 %ID/g
same,"Biodistribution, Spleen",[6]; 24 h,2.79 ± 0.87 %ID/g
same,"Biodistribution, Stomach",[6]; 24 h,1.27 ± 0.08 %ID/g
same,"Biodistribution, Tumor",[6]; 24 h,37.13 ± 3.65 %ID/g
same,"Biodistribution, Blood",[6]; 48 h,1.08 ± 0.27 %ID/g
same,"Biodistribution, Bone",[6]; 48 h,3.42 ± 0.40 %ID/g
same,"Biodistribution, Fat",[6]; 48 h,2.36 ± 1.25 %ID/g
same,"Biodistribution, Heart",[6]; 48 h,1.91 ± 0.57 %ID/g
same,"Biodistribution, Intestine",[6]; 48 h,1.54 ± 0.16 %ID/g
same,"Biodistribution, Kidney",[6]; 48 h,52.07 ± 18.32 %ID/g
same,"Biodistribution, Liver",[6]; 48 h,5.74 ± 1.83 %ID/g
same,"Biodistribution, Lung",[6]; 48 h,3.64 ± 1.14 %ID/g
same,"Biodistribution, Muscle",[6]; 48 h,0.80 ± 0.22 %ID/g
same,"Biodistribution, Spleen",[6]; 48 h,3.56 ± 1.14 %ID/g
same,"Biodistribution, Stomach",[6]; 48 h,1.14 ± 0.31 %ID/g
same,"Biodistribution, Tumor",[6]; 48 h,28.84 ± 13.04 %ID/g
same,"Biodistribution, Blood",[7]; 2 h,9.51 ± 7.25 %ID/g
same,"Biodistribution, Bone",[7]; 2 h,1.07 ± 0.24 %ID/g
same,"Biodistribution, Brain",[7]; 2 h,0.26 ± 0.12 %ID/g
same,"Biodistribution, Fat",[7]; 2 h,1.20 ± 0.35 %ID/g
same,"Biodistribution, Heart",[7]; 2 h,3.17 ± 1.12 %ID/g
same,"Biodistribution, Intestine",[7]; 2 h,2.21 ± 0.35 %ID/g
same,"Biodistribution, Kidney",[7]; 2 h,53.28 ± 19.92 %ID/g
same,"Biodistribution, Liver",[7]; 2 h,4.38 ± 1.51 %ID/g
same,"Biodistribution, Lung",[7]; 2 h,5.48 ± 2.24 %ID/g
same,"Biodistribution, Muscle",[7]; 2 h,1.30 ± 0.42 %ID/g
same,"Biodistribution, Spleen",[7]; 2 h,5.07 ± 1.38 %ID/g
same,"Biodistribution, Stomach",[7]; 2 h,1.21 ± 0.49 %ID/g
same,"Biodistribution, Blood",[7]; 6 h,5.62 ± 0.95 %ID/g
same,"Biodistribution, Bone",[7]; 6 h,0.89 ± 0.22 %ID/g
same,"Biodistribution, Brain",[7]; 6 h,0.19 ± 0.02 %ID/g
same,"Biodistribution, Fat",[7]; 6 h,0.99 ± 0.27 %ID/g
same,"Biodistribution, Heart",[7]; 6 h,2.25 ± 0.33 %ID/g
same,"Biodistribution, Intestine",[7]; 6 h,1.69 ± 0.55 %ID/g
same,"Biodistribution, Kidney",[7]; 6 h,58.85 ± 6.00 %ID/g
same,"Biodistribution, Liver",[7]; 6 h,4.11 ± 0.53 %ID/g
same,"Biodistribution, Lung",[7]; 6 h,4.76 ± 0.51 %ID/g
same,"Biodistribution, Muscle",[7]; 6 h,1.05 ± 0.14 %ID/g
same,"Biodistribution, Spleen",[7]; 6 h,5.05 ± 1.56 %ID/g
same,"Biodistribution, Stomach",[7]; 6 h,0.92 ± 0.45 %ID/g
same,"Biodistribution, Blood",[7]; 24 h,1.39 ± 0.15 %ID/g
same,"Biodistribution, Bone",[7]; 24 h,0.60 ± 0.03 %ID/g
same,"Biodistribution, Brain",[7]; 24 h,0.13 ± 0.01 %ID/g
same,"Biodistribution, Fat",[7]; 24 h,0.63 ± 0.26 %ID/g
same,"Biodistribution, Heart",[7]; 24 h,1.22 ± 0.06 %ID/g
same,"Biodistribution, Intestine",[7]; 24 h,1.16 ± 0.24 %ID/g
same,"Biodistribution, Kidney",[7]; 24 h,37.40 ± 1.84 %ID/g
same,"Biodistribution, Liver",[7]; 24 h,5.32 ± 0.12 %ID/g
same,"Biodistribution, Lung",[7]; 24 h,2.53 ± 0.20 %ID/g
same,"Biodistribution, Muscle",[7]; 24 h,0.42 ± 0.05 %ID/g
same,"Biodistribution, Spleen",[7]; 24 h,2.56 ± 0.33 %ID/g
same,"Biodistribution, Stomach",[7]; 24 h,0.67 ± 0.22 %ID/g
same,"Biodistribution, Blood",[7]; 48 h,0.45 ± 0.15 %ID/g
same,"Biodistribution, Bone",[7]; 48 h,0.83 ± 0.10 %ID/g
same,"Biodistribution, Brain",[7]; 48 h,0.18 ± 0.01 %ID/g
same,"Biodistribution, Fat",[7]; 48 h,0.40 ± 0.10 %ID/g
same,"Biodistribution, Heart",[7]; 48 h,0.95 ± 0.07 %ID/g
same,"Biodistribution, Intestine",[7]; 48 h,0.56 ± 0.08 %ID/g
same,"Biodistribution, Kidney",[7]; 48 h,9.55 ± 2.33 %ID/g
same,"Biodistribution, Liver",[7]; 48 h,3.86 ± 0.31 %ID/g
same,"Biodistribution, Lung",[7]; 48 h,1.32 ± 0.13 %ID/g
same,"Biodistribution, Muscle",[7]; 48 h,0.45 ± 0.04 %ID/g
same,"Biodistribution, Spleen",[7]; 48 h,1.19 ± 0.11 %ID/g
same,"Biodistribution, Stomach",[7]; 48 h,0.44 ± 0.11 %ID/g
